# Key:
# [1] = target: T1, HiBit-BRM fusion protein (Homo sapiens, UniProt P51531); experiment: HiBiT-BRM cell-based degradation assay (Nano-Glo HiBiT lytic detection, 24 h); details: HeLa cell line expressing HiBiT-BRM; for DC50: read-out: BRM HiBit Degradation IC50
# T1 construct: expressed in transfected cells
# Description: (§1) Procedure: A stable HeLa cell line expressing HiBiT-BRM was generated. On day 0, 5000 cells were seeded in 40 μL of media into each well of 384-well cell culture plates. On day 1, cells were treated with 120 nL DMSO or 120 nL of 3-fold serially DMSO-diluted compounds (10 points in duplicate with 30 μM as final top dose). Subsequently plates were incubated for 24 h in a standard tissue culture incubator and equilibrated at room temperature for 15 minutes. Nano-GB HiBiT Lytic Detection System (Promega N3050) reagent was freshly prepared and 20 ul was added to each well. Upon addition of this LgBit-containing reagent, the HiBiT and LgBiT proteins associate to form the luminescent NanoBiT luciferase. The plates were shaken for 10 minutes at room temperature and the bioluminescence read using an EnVision plate reader (PerkinElmer).
# (§2) The degradation % was calculated using the following formula: % degradation=100%−100%×(Lumsample−LuMLC)/(LuMHC−LuMLC). DMSO treated cells are employed as High Control (HC) and 2 μM of a known BRM/BRG1 degrader standard treated cells are employed as Low Control (LC).
# [2] = target: T2, HiBit-BRG1 fusion protein (Homo sapiens, UniProt P51532); experiment: HiBiT-BRG1 cell-based degradation assay (Nano-Glo HiBiT lytic detection, 24 h); details: HeLa cell line expressing HiBit-BRG1 and LgBit; for Dmax: read-out: BRG1 HiBit Degradation Maximum (%); for DC50: read-out: BRMG1 HiBit Degradation IC50
# T2 construct: expressed in transfected cells
# Description: as §1, with “On day 1, cells were treated with 120 nL DMSO or 120 nL of 3-fold serially DMSO-diluted compounds (10 points in duplicate with 30 μM as final top dose).” left out
# For measurement of BRG1 degradation, a stable HeLa cell line expressing HiBit-BRG1 and LgBit was generated. The same protocol as above was then followed.
# as §2
# T2 sequence (P51532 whole entry, the tested form may be a part): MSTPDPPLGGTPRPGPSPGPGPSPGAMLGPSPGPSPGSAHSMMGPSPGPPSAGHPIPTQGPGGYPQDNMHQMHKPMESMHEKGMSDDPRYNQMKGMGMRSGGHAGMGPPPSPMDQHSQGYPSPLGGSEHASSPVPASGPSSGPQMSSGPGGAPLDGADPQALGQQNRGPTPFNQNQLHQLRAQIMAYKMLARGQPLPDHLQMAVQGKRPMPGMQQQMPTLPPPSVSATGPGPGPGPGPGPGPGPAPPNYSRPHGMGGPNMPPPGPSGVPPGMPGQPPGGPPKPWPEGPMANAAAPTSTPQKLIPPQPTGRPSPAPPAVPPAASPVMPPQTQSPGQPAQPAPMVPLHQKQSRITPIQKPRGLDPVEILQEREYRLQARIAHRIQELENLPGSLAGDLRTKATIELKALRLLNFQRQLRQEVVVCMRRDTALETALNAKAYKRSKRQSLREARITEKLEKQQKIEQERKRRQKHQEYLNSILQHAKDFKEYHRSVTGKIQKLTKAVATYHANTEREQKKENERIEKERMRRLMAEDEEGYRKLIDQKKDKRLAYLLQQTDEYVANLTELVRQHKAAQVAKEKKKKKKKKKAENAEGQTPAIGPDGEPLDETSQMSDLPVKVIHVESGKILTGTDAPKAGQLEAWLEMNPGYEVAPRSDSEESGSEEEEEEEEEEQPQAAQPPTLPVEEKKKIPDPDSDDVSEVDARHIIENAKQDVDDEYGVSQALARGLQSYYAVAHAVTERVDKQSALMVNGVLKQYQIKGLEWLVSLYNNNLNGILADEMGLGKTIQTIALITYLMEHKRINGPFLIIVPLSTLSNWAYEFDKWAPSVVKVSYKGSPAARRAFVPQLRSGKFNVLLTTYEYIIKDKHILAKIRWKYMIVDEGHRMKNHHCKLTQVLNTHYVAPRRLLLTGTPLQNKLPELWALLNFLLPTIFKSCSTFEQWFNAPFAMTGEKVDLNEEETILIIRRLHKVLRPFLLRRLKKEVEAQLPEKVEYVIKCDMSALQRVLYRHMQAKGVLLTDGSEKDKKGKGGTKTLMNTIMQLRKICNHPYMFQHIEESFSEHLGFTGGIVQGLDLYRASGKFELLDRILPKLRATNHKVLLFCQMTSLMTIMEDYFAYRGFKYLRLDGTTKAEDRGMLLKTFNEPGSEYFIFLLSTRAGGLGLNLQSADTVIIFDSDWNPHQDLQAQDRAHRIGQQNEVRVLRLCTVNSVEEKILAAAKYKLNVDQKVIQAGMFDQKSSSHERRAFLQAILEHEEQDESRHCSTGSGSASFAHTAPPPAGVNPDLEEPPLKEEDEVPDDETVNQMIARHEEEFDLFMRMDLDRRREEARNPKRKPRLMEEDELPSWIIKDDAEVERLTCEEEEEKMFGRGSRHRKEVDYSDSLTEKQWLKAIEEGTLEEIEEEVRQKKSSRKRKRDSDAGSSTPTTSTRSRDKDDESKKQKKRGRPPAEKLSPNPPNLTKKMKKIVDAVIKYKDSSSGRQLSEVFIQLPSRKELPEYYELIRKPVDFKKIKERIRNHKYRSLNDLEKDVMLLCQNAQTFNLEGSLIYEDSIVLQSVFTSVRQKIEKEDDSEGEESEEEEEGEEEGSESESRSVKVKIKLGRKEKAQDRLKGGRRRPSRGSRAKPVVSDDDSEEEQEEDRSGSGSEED
# T1 sequence (P51531 whole entry, the tested form may be a part): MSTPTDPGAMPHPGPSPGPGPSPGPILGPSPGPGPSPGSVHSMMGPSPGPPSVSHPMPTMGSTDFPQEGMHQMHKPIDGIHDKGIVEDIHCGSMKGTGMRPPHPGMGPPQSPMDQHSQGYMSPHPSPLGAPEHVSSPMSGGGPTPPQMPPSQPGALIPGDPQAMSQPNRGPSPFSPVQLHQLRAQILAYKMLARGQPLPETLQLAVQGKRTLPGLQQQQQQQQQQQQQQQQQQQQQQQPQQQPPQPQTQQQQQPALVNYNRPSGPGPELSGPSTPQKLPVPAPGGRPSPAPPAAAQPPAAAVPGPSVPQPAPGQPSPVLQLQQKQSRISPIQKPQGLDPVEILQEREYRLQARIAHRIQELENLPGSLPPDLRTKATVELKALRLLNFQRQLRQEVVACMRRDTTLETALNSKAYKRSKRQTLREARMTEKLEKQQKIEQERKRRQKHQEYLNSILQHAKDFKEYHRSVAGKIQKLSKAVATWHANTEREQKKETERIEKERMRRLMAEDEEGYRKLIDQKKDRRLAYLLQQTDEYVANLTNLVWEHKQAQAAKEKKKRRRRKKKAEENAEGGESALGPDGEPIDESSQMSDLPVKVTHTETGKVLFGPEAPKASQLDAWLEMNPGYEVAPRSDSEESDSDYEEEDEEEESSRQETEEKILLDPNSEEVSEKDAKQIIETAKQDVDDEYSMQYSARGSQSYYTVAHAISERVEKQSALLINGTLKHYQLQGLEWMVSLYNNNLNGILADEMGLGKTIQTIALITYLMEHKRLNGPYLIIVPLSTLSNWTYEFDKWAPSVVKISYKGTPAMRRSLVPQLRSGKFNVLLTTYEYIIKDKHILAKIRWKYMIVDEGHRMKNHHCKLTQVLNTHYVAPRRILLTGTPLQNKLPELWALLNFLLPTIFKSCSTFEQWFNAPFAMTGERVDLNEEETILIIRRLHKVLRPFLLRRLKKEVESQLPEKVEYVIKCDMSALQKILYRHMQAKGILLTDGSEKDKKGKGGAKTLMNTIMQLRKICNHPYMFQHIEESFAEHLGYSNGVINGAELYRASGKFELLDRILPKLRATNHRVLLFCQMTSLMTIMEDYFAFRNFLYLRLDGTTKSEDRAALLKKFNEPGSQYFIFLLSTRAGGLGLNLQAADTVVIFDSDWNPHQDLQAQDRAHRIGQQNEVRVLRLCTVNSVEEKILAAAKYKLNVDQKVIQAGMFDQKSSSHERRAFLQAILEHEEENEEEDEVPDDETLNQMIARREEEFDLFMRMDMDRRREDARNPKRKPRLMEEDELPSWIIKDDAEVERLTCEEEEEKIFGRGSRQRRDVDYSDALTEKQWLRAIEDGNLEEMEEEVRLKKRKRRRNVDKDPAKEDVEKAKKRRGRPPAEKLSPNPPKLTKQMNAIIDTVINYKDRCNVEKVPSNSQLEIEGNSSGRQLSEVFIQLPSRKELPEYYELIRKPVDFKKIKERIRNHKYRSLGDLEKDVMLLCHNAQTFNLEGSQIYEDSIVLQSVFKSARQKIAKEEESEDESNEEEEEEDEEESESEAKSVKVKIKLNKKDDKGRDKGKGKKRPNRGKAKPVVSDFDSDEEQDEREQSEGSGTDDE
DC50 [1] [µM],Dmax [2] [%],DC50 [2] [µM],SMILES,BRM HiBit Degradation Maximum (%) [1]
> 0.01,> 75,> 0.1,"Cc1ncsc1-c1ccc([C@H](C)NC(=O)[C@@H]2C[C@@H](O)CN2C(=O)[C@@H](c2cc(OCCN3CC(c4cc5nnc(-c6ccccc6O)cc5[nH]4)C3)no2)C(C)C)cc1 [Compound 1, (2S,4R)-4-hydroxy-1-[(2R)-2-[3-(2-{3-[3-(2-hydroxyphenyl)-5H-pyrrolo[3,2-c]pyridazin-6-yl]azetidin-1-yl}ethoxy)-1,2-oxazol-5-yl]-3-methylbutanoyl]-N-[(1S)-1-[4-(4-methyl-1,3-thiazol-5-yl)phenyl]ethyl]pyrrolidine-2-carboxamide]",A (“A” indicates maximum degradation ≥75%)
> 0.01,< 50,,"Cc1ncsc1-c1ccc([C@H](C)NC(=O)[C@@H]2C[C@@H](O)CN2C(=O)[C@@H](c2cc(OCCCN3CC(c4cc5nnc(-c6ccccc6O)cc5n4C)C3)no2)C(C)C)cc1 [Compound 11, (2S,4R)-4-hydroxy-1-((R)-2-(3-(3-(3-(3-(2-hydroxyphenyl)-5-methyl-5H-pyrrolo[3,2-c]pyridazin-6-yl)azetidin-1-yl)propoxy)isoxazol-5-yl)-3-methylbutanoyl)-N-((S)-1-(4-(4-methylthiazol-5-yl)phenyl)ethyl)pyrrolidine-2-carboxamide]",A (“A” indicates maximum degradation ≥75%)
< 0.01,< 50,,"Cc1ncsc1-c1ccc([C@H](C)NC(=O)[C@@H]2C[C@@H](O)CN2C(=O)[C@@H](c2cc(N3CCC4(CC[C@@H](c5cc6nnc(-c7ccccc7O)cc6n5C5CC5)C4)CC3)no2)C(C)C)cc1 [Compound 97, (2S,4R)-1-((R)-2-(3-((R)-2-(5-cyclopropyl-3-(2-hydroxyphenyl)-5H-pyrrolo[3,2-c]pyridazin-6-yl)-8-azaspiro[4.5]decan-8-yl)isoxazol-5-yl)-3-methylbutanoyl)-4-hydroxy-N-((S)-1-(4-(4-methylthiazol-5-yl)phenyl)ethyl)pyrrolidine-2-carboxamide]",A (“A” indicates maximum degradation ≥75%)
< 0.01,< 50,,"Cc1ncsc1-c1ccc([C@H](C)NC(=O)[C@@H]2C[C@@H](O)CN2C(=O)[C@@H](c2cc(N3CC4(CC(c5cc6nnc(-c7ccccc7O)cc6n5C5CC5)C4)C3)no2)C(C)C)cc1 [Compound 78, (2S,4R)-1-((R)-2-(3-(6-(5-cyclopropyl-3-(2-hydroxyphenyl)-5H-pyrrolo[3,2-c]pyridazin-6-yl)-2-azaspiro[3.3]heptan-2-yl)isoxazol-5-yl)-3-methylbutanoyl)-4-hydroxy-N-((S)-1-(4-(4-methylthiazol-5-yl)phenyl)ethyl)pyrrolidine-2-carboxamide]",A (“A” indicates maximum degradation ≥75%)
< 0.01,> 75,> 0.01,"Cc1ncsc1-c1ccc([C@H](C)NC(=O)[C@@H]2C[C@@H](O)CN2C(=O)[C@@H](c2cc(N3CCC(N4CC(c5cc6nnc(-c7ccccc7O)cc6n5C)C4)CC3)no2)C(C)C)cc1 [Compound 12, (2S,4R)-4-hydroxy-1-((R)-2-(3-(4-(3-(3-(2-hydroxyphenyl)-5-methyl-5H-pyrrolo[3,2-c]pyridazin-6-yl)azetidin-1-yl)piperidin-1-yl)isoxazol-5-yl)-3-methylbutanoyl)-N-((S)-1-(4-(4-methylthiazol-5-yl)phenyl)ethyl)pyrrolidine-2-carboxamide]",A (“A” indicates maximum degradation ≥75%)
< 0.01,< 50,,"C#Cc1ccc(CNC(=O)[C@@H]2C[C@@H](O)CN2C(=O)C(c2cc(N3CC4(CC(c5cc6nnc(-c7ccccc7O)cc6n5C5CCC5)C4)C3)no2)C(C)C)cc1 (stereo partly drawn) [Compound 57, (2S,4R)-1-(2-(3-(6-(5-cyclobutyl-3-(2-hydroxyphenyl)-5H-pyrrolo[3,2-c]pyridazin-6-yl)-2-azaspiro[3.3]heptan-2-yl)isoxazol-5-yl)-3-methylbutanoyl)-N-(4-ethynylbenzyl)-4-hydroxypyrrolidine-2-carboxamide]",A (“A” indicates maximum degradation ≥75%)
> 0.01,< 50,,"Cc1ncsc1-c1ccc([C@H](C)NC(=O)[C@@H]2C[C@@H](O)CN2C(=O)[C@H](c2cc(-c3cnc(N4CC[C@@H](c5cc6nnc(-c7ccccc7O)cc6n5C5CC5)C4)nc3)no2)C(C)C)cc1 [Compound 37, (2S,4R)-1-((S)-2-(3-(2-((R)-3-(5-cyclopropyl-3-(2-hydroxyphenyl)-5H-pyrrolo[3,2-c]pyridazin-6-yl)pyrrolidin-1-yl)pyrimidin-5-yl)isoxazol-5-yl)-3-methylbutanoyl)-4-hydroxy-N—((S)-1-(4-(4-methylthiazol-5-yl)phenyl)ethyl)pyrrolidine-2-carboxamide]",A (“A” indicates maximum degradation ≥75%)
< 0.01,> 75,> 0.01,"Cc1ncsc1-c1ccc([C@H](C)NC(=O)[C@@H]2C[C@@H](O)CN2C(=O)[C@@H](c2cc(N3CC[C@@H](c4cc5nnc(-c6ccccc6O)cc5n4C4CCC4)C3)no2)C(C)C)cc1 [Compound 88, (2S,4R)-1-((R)-2-(3-((R)-3-(5-cyclobutyl-3-(2-hydroxyphenyl)-5H-pyrrolo[3,2-c]pyridazin-6-yl)pyrrolidin-1-yl)isoxazol-5-yl)-3-methylbutanoyl)-4-hydroxy-N-((S)-1-(4-(4-methylthiazol-5-yl)phenyl)ethyl)pyrrolidine-2-carboxamide]",A (“A” indicates maximum degradation ≥75%)
< 0.01,> 75,> 0.1,"Cc1ncsc1-c1ccc([C@H](C)NC(=O)[C@@H]2C[C@@H](O)CN2C(=O)[C@@H](c2cc(N3CCC(N4CC(c5cc6nnc(-c7ccccc7O)cc6[nH]5)C4)CC3)no2)C(C)C)cc1 [Compound 5, (2S,4R)-4-hydroxy-1-((R)-2-(3-(4-(3-(3-(2-hydroxyphenyl)-5H-pyrrolo[3,2-c]pyridazin-6-yl)azetidin-1-yl)piperidin-1-yl)isoxazol-5-yl)-3-methylbutanoyl)-N-((S)-1-(4-(4-methylthiazol-5-yl)phenyl)ethyl)pyrrolidine-2-carboxamide]",A (“A” indicates maximum degradation ≥75%)
< 0.01,< 50,,"Cc1ncsc1-c1ccc([C@H](C)NC(=O)[C@@H]2C[C@@H](O)CN2C(=O)[C@@H](C(C)C)n2cc(-c3cnc(N4CC[C@@H](c5cc6nnc(-c7ccccc7O)cc6n5C5CC5)C4)nc3)nn2)cc1 [Compound 72, (2S,4R)-1-((R)-2-(4-(2-((R)-3-(5-cyclopropyl-3-(2-hydroxyphenyl)-5H-pyrrolo[3,2-c]pyridazin-6-yl)pyrrolidin-1-yl)pyrimidin-5-yl)-1H-1,2,3-triazol-1-yl)-3-methylbutanoyl)-4-hydroxy-N-((S)-1-(4-(4-methylthiazol-5-yl)phenyl)ethyl)pyrrolidine-2-carboxamide]",A (“A” indicates maximum degradation ≥75%)
> 0.01,< 50,,"CC(C)C(C(=O)N1C[C@H](O)C[C@H]1C(=O)NCc1ccc(F)cc1)c1cc(N2CC3(CC(c4cc5nnc(-c6ccccc6O)cc5n4C4CCC4)C3)C2)no1 (stereo partly drawn) [Compound 50, (2S,4R)-1-(2-(3-(6-(5-cyclobutyl-3-(2-hydroxyphenyl)-5H-pyrrolo[3,2-c]pyridazin-6-yl)-2-azaspiro[3.3]heptan-2-yl)isoxazol-5-yl)-3-methylbutanoyl)-N-(4-fluorobenzyl)-4-hydroxypyrrolidine-2-carboxamide]",A (“A” indicates maximum degradation ≥75%)
> 1,,,"Cc1ncsc1-c1ccc([C@H](C)NC(=O)[C@@H]2C[C@@H](O)CN2C(=O)[C@@H](c2cc(OCCCN3CC(c4cc5nnc(-c6ccccc6O)cc5[nH]4)C3)no2)C(C)C)cc1 [Compound 3, (2S,4R)-4-hydroxy-1-((R)-2-(3-(3-(3-(3-(2-hydroxyphenyl)-5H-pyrrolo[3,2-c]pyridazin-6-yl)azetidin-1-yl)propoxy)isoxazol-5-yl)-3-methylbutanoyl)-N-((S)-1-(4-(4-methylthiazol-5-yl)phenyl)ethyl)pyrrolidine-2-carboxamide, formic acid]",B (“B” indicates maximum degradation ≥50%)

# Source: US20250302832A1, “PYRAZINE DERIVATIVES AND USES THEREOF” (FOGHORN THERAPEUTICS INC., priority 2022, published 2025)
